This note sets out measurements from ChEMBL document CHEMBL1152634, “Synthesis and evaluation of novel alpha-heteroaryl-phenylpropanoic acid derivatives as PPARalpha/gamma dual agonists” (Bioorg Med Chem, 2009).

Usually half-life stands for the time needed for the level to fall by half in the phase considered. Read a low half-life as rapid decline. The bioavailability is dose-corrected exposure relative to a reference, in per cent. Usually clearance stands for the rate of elimination divided by the concentration. Usually AUC stands for concentration integrated over time. Read a high AUC as more exposure.

The nature of data set [1]: Volume of distribution at steady state in rat at 1 mg/kg, iv. The data set is classed as ADME, organism-based. The arrangement: dose 1 mg/kg, route intravenous. Conditions: in vivo, read-out: Vdss.
Data set [2] is described as follows: Half life in rat at 1 mg/kg, iv. The data set is classed as ADME, organism-based. Set-up: dose 1 mg/kg, route intravenous. Conditions: in vivo.
Data set [3] can be described thus: Oral bioavailability in dog at 3 mg/kg, po. The data set is classed as ADME, organism-based, Canis lupus familiaris. The conditions noted are these: in vivo.
Data set [4] in a line: Clearance in dog at 1 mg/kg, iv. Type of data set: ADME, organism-based, Canis lupus familiaris. Set-up: dose 1 mg/kg, route intravenous. The conditions noted are these: in vivo.
Data set [5] can be described thus: AUC in rat at 3 mg/kg, po. The data set is classed as ADME, organism-based. The arrangement: dose 3 mg/kg, route oral. Conditions: plasma.
Data set [6] is described as follows: AUC in dog at 3 mg/kg, po. The conditions noted are these: plasma. The data set is classed as ADME, organism-based, Canis lupus familiaris. Set-up: dose 3 mg/kg, route oral.
Data set [7] is described as follows: Oral bioavailability in rat at 3 mg/kg, po. The conditions noted are these: in vivo. Type of data set: ADME, organism-based.
The nature of data set [8]: AUC in rat at 1 mg/kg, iv. The data set is classed as ADME, organism-based. The arrangement: dose 1 mg/kg, route intravenous. Conditions: plasma.
A short description of data set [9]: AUC in dog at 1 mg/kg, iv. Conditions: plasma. Set-up: dose 1 mg/kg, route intravenous. The data set is classed as ADME, organism-based, Canis lupus familiaris.
The nature of data set [10]: Clearance in rat at 1 mg/kg, iv. The data set is classed as ADME, organism-based. The arrangement: dose 1 mg/kg, route intravenous. Conditions: in vivo.
Data set [11] is described as follows: Half life in dog at 1 mg/kg, iv. The data set is classed as ADME, organism-based, Canis lupus familiaris. Conditions: in vivo. Set-up: dose 1 mg/kg, route intravenous.
A short description of data set [12]: Volume of distribution at steady state in dog at 1 mg/kg, iv. The data set is classed as ADME, organism-based, Canis lupus familiaris. Set-up: dose 1 mg/kg, route intravenous. The conditions noted are these: in vivo, read-out: Vdss.

As for `Cc1oc(-c2ccccc2)nc1CCCc1ccc(C[C@@H](C(=O)O)n2nccn2)cc1`, the Vd in data set [1] was determined as 2.9 L/kg; in data set [12], 0.82 L/kg. For the same compound, the figures for the half-life in data set [2] and in data set [11] were 7.5 h and 5.8 h, respectively. The bioavailability in [3] was greater than 95%; in data set [7], 42%. Moreover, the clearance was 4.4 mL/min/kg in data set [4] and 18 mL/min/kg in [10]. Also, the AUC in data set [5] stood at 1170 ng·h/mL; in [6], 13000 ng·h/mL; in data set [8], 928 ng·h/mL; in data set [9], 3970 ng·h/mL.
